Laboratory results as given in ChEMBL document CHEMBL5465560, “Selectivity Literature for EUbOPEN Chemogenomic Library” (2024).

Columns and labels:
[1] = target: T1, Serine/threonine-protein kinase 3 (Homo sapiens) (UniProt Q13188); assay: Selectivity interaction (KinomeScan (DiscoverX)) EUB0000666a STK3; details: at 10 µM
T1 sequence (whole entry): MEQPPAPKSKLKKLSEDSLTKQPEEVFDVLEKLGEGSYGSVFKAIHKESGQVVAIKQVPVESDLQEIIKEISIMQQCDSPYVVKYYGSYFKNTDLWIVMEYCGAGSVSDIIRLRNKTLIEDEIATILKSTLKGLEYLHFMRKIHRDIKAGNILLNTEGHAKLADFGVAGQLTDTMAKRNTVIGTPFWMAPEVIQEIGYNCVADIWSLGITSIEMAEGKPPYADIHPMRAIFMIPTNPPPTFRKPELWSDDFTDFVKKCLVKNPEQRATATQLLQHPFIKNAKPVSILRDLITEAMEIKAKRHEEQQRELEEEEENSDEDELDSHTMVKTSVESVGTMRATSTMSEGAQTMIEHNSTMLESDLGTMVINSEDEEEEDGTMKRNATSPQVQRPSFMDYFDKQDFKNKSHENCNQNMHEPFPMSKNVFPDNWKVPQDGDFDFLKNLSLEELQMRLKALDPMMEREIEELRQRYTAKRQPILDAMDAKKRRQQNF

[2] = target: Tyrosine-protein kinase Fer (Homo sapiens) (UniProt P16591); assay: Selectivity interaction (ActivX KiNativ screen (kinase selectivity in THP-1 cell lysates)) EUB0000639a FER; format: subcellular; details: lysate, at 0.01 µM
Sequence of Tyrosine-protein kinase Fer (Homo sapiens) (P16591 whole entry, looked up): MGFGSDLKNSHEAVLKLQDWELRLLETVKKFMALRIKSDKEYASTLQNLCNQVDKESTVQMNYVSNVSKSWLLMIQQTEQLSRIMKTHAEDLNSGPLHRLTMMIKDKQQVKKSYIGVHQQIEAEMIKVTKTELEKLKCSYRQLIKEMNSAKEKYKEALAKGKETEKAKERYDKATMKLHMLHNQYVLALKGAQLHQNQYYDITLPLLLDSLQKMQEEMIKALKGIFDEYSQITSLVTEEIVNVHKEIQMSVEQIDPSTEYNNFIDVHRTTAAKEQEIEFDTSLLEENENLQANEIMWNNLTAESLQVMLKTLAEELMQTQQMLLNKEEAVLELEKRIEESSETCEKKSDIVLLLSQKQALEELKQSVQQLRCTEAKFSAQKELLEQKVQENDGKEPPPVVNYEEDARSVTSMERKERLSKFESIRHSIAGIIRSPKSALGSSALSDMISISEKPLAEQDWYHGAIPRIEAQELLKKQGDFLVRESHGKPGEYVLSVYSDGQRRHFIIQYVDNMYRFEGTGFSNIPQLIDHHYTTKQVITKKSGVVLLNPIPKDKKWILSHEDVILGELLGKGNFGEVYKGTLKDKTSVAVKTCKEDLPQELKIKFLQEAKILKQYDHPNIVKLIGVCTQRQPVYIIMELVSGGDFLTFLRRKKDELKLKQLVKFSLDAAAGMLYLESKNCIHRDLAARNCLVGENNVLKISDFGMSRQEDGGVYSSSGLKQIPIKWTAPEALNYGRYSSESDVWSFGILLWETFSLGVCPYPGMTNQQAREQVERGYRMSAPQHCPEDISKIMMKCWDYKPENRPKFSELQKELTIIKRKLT

[3] = target: Glycogen synthase kinase-3 alpha (Homo sapiens, UniProt P49840); assay: Selectivity interaction (Kinase panel (Invitrogen)) EUB0000639a GSK3A; details: at 200 nM
Sequence of Glycogen synthase kinase-3 alpha (P49840 2-483 limits assumed): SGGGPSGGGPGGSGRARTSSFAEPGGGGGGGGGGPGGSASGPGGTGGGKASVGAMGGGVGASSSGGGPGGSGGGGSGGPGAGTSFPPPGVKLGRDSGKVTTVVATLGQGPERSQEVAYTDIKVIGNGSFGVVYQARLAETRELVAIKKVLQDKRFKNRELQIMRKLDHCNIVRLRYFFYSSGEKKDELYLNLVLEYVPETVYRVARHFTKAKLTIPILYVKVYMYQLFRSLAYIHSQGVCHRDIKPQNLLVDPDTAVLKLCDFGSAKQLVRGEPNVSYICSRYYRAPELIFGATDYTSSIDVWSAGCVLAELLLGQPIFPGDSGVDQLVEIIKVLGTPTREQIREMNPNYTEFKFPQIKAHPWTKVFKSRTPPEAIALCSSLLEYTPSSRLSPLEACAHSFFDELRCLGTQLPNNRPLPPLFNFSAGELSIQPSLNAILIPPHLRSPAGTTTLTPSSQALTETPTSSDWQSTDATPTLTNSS

[4] = target: T2, Protein kinase C iota type (Homo sapiens) (UniProt P41743); assay: Selectivity interaction (ActivX KiNativ screen (kinase selectivity in THP-1 cell lysates)) EUB0000639a PRKCI; format: subcellular; details: lysate, at 1 µM
T2 sequence (whole entry): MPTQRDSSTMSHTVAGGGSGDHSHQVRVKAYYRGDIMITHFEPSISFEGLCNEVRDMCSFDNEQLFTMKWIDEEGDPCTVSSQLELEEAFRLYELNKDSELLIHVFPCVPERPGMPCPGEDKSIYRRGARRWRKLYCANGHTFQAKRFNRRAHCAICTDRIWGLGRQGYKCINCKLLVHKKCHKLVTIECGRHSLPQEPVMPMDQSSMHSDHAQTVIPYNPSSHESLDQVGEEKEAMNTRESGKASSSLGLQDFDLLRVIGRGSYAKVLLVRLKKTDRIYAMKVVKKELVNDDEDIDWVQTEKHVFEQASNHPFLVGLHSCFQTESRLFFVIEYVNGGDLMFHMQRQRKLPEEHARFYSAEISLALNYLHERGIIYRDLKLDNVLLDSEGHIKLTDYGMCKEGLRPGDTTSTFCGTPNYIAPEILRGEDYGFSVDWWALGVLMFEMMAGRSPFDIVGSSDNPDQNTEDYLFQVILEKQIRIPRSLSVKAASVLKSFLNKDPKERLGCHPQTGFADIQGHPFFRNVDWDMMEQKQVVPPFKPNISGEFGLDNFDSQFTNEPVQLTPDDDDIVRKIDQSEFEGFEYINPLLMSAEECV

[5] = target: T3, STE20-related kinase adapter protein alpha (Homo sapiens) (UniProt Q7RTN6); assay: Selectivity interaction (ActivX KiNativ screen (kinase selectivity in THP-1 cell lysates)) EUB0000639a STRADA; format: subcellular; details: lysate
T3 sequence (whole entry): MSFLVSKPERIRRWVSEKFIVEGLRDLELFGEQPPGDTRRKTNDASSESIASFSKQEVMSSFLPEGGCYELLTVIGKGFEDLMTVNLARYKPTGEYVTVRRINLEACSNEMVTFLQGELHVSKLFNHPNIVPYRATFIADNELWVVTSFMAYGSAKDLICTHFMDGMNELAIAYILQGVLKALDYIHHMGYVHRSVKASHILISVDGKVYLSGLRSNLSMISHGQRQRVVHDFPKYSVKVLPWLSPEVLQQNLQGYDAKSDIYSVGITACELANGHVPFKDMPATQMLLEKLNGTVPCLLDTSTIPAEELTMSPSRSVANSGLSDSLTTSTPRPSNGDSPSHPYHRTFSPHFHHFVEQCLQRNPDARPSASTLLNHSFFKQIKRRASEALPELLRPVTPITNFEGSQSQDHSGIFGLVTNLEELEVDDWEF

[6] = target: Myosin light chain kinase, smooth muscle (Homo sapiens, UniProt Q15746); details: at 10 µM
Sequence of Myosin light chain kinase, smooth muscle (Q15746 whole entry): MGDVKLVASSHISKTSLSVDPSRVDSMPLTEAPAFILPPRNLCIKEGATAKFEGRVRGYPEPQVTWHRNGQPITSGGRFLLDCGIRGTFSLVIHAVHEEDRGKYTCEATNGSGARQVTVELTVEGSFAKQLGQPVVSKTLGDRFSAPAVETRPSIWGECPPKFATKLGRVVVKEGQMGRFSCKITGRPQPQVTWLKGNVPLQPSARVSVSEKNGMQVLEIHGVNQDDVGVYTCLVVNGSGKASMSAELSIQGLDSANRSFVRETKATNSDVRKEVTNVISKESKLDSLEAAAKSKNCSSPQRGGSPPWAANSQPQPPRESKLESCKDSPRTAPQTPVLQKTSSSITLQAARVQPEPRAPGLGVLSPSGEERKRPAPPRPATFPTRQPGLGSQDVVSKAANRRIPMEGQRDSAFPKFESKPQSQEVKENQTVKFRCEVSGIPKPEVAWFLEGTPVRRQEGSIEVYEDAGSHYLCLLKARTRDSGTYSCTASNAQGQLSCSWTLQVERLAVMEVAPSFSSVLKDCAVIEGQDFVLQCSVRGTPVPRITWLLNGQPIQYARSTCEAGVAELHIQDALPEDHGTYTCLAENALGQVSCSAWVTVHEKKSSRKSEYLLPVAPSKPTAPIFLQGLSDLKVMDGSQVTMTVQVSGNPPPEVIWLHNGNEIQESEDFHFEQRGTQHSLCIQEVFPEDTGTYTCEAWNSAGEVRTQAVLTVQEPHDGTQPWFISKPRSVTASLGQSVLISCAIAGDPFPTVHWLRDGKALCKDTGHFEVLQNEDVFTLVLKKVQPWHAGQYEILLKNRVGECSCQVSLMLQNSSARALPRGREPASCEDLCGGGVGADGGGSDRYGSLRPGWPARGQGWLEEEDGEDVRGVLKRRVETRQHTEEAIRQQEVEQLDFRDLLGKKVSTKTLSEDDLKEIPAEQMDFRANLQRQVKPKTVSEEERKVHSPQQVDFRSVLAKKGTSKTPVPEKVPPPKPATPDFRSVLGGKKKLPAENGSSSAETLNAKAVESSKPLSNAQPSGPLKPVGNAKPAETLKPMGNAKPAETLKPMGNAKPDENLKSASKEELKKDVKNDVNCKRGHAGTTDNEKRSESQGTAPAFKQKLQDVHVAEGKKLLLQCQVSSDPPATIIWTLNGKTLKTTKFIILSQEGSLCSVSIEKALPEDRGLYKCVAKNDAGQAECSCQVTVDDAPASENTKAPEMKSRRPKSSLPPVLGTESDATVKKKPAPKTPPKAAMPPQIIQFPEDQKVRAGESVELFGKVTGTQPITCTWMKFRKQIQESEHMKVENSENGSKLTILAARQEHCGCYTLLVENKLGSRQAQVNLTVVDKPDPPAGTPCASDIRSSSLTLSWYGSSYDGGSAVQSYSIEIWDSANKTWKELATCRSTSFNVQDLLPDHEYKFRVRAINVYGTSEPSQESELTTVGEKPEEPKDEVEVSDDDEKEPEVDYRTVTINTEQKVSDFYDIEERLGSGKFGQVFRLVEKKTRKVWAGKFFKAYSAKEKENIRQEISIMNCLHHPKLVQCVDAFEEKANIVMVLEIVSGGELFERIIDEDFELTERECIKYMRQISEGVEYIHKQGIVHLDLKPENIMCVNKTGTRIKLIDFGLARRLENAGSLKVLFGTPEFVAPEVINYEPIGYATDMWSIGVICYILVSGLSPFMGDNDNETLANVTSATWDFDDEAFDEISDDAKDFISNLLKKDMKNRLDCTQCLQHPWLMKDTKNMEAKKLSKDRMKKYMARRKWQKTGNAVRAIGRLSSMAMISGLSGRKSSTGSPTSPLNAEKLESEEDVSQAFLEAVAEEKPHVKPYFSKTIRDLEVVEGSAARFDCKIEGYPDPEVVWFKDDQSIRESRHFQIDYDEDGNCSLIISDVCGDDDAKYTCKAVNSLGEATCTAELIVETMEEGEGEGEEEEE

[7] = target: T4, Serine/threonine-protein kinase Nek3 (Homo sapiens) (UniProt P51956); assay: Selectivity interaction (KinomeScan (DiscoverX)) EUB0000607a NEK3; details: at 10 µM
T4 sequence (whole entry): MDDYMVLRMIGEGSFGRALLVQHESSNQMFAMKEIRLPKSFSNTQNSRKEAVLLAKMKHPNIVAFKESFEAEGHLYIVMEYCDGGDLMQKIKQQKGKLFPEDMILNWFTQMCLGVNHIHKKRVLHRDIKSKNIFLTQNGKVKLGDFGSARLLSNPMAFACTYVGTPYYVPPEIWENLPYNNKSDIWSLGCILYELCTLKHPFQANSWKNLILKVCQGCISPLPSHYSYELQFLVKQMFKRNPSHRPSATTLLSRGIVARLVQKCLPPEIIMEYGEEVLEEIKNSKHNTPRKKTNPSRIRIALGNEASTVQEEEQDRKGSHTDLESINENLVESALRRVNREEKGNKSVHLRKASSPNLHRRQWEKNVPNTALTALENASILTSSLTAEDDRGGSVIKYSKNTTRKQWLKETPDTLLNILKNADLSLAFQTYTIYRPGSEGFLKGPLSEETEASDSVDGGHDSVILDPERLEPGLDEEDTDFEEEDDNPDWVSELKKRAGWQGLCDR

[8] = target: T5, cAMP-dependent protein kinase catalytic subunit PRKX (Homo sapiens) (UniProt P51817); assay: Selectivity interaction (ProQinase) EUB0000171b PRKX
T5 sequence (whole entry): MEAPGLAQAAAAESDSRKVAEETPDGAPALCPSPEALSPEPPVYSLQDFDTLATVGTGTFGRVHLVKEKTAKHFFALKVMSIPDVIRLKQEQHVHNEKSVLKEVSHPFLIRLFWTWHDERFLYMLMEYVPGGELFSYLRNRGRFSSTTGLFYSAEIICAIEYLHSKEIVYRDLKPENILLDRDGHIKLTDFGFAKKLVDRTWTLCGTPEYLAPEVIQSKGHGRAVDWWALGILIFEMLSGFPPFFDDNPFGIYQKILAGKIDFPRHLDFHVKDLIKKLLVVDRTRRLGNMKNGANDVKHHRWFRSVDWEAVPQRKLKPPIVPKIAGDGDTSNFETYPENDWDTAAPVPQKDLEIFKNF

## O=C(NOC[C@H](O)CO)c1ccc(F)c(F)c1Nc1ccc(I)cc1F
[1]
  % of control: 90%

## CC[C@@H]1[C@H](F)C(=O)N[C@@H]1COc1nccc2cc(C(N)=O)c(OC)cc12 [ZIMLOVISERTIB]
[2]
  % of inhibition: -9%
[3]
  % of inhibition: 7.43%
[4]
  % of inhibition: 2.2%
[5]; at 0.01 µM
  % of inhibition: -13.1%
[5]; at 0.04 µM
  % of inhibition: 4.6%
[5]; at 0.2 µM
  % of inhibition: -11.6%
[5]; at 1 µM
  % of inhibition: 5.4%
[5]; at 5 µM
  % of inhibition: 3.6%

## Cc1cc([C@@H](C)Nc2ccccc2C(=O)O)c2nc(N3CCOCC3)cc(=O)n2c1 [AZD-6482]
[6]
  % of control: 70%

## CNC(=O)Nc1ccc(-c2nc(N3CC4CCC(C3)O4)c3cnn(C4CCC5(CC4)OCCO5)c3n2)cc1
[7]
  % of control: 100%

## C=CC(=O)Nc1cccc(C(=O)Nc2ccc(Nc3cc(-c4[nH]c(SC)nc4C)ccn3)cc2)c1
[8]; at 1 µM
  % of control: 86%
[8]; at 5 µM
  % of control: 61%
